Test results taken from US12662707B2, “MYC amplification drives resistance to pan-RAS inhibitors in pancreatic cancer” (The Trustees of Columbia University in the City of New York, priority 2024, dated 2026).

Assays:
[1] = RMC-7977 levels in KPCY allograft tumor tissue; assay type: in vivo; conditions: C57Bl/6, mouse, oral, 10 mg/kg
Experimental: Body weights were measured twice a week during the study. Tissue was harvested either at 4 hours or 24 hours after last dose and preserved as previously described (See Xenograft studies section). Whole blood, tumor, colon and skin tissue concentrations of RMC-7977 were determined using liquid chromatography-tandem mass spectrometry (LC-MS/MS) methods. […] After thorough mixing and centrifugation, the supernatant was directly analyzed on a Sciex 6500+ triple quadrupole mass spectrometer equipped with an ACQUITY or Shimadzu UPLC system. An ACQUITY UPLC BEH C18 or C4 […] (2.1×50 mm) column was used with gradient elution for compound separation. RMC-7977 and IS (verapamil or terfenadine) were detected by positive electrospray ionization using multiple reaction monitoring (RMC-7977: m/z 865.4/706.4 or m/z 865.3/833.5; verapamil: m/z 455.2/164.9; terfenadine: m/z 472.3/436.4). […] BA analysis on blood and tissue samples from xenograft models was run at Wuxi AppTec. BA analysis on blood and tissue samples from allograft models and GEMM was run at Revolution Medicines.

[2] = test system: pERK, pS6, CC3, Cyclin A2 in KPC tumors; test: Pharmacodynamic IHC of KPC tumors (SD, 1 wk, EP); assay type: in vivo, mouse
Experimental: Tumor formation in KPC mice was monitored by bi-weekly palpation. […] Treatments were performed every other day via oral gavage for 1 week. […] Following two consecutive ultrasounds, RMC-7977-treated animals were sacrificed either 4 (n=7) or 24 hours (n=4) after last dose and Vehicle-treated animals were sacrificed between 4-24 hours post last dose. Tissue was harvested and preserved as previously described (See Xenograft studies section). Additional group of KPC mice was also treated with a single dose of RMC-7977 (n=10) or Vehicle (n=3) and tissues were harvested at 4 or 24 hours post dose as previously described. […] RNA was extracted from at least 20 mg of indicated OCT or LN2 frozen tissue using an RNeasy Mini Kit (Qiagen, 74104) and a High Throughput Tissue grinder following the manufacturer's protocol. Reverse transcription was carried out using High-Capacity cDNA Reverse Transcription Kit (ABI, 4368814) according to the manufacturer's protocol. The cDNA product was used for qPCR analysis using TaqMan Gene Expression Master Mix (ABI, 4369016) or iTaq Universal SYBR Green Supermix (BioRad, 172-5125) depending on the primer. […] For qPCR, Ct value of MAPK signature genes and 18S were obtained for analysis. Generated Ct value were normalized to 18S, and then the mean relative mRNA expression levels of each sample were normalized to the average of the vehicle control group. Values were plotted as relative change in mRNA expression compared to Vehicle. Means±s.d. were shown. For primer sequences and more information. All tissues were fixed for up to 24 hours using 10% neutral buffered formalin and then moved to 70% ethanol for long term storage. All stainings were performed on 4-μm tissue sections. Sections were deparaffinized using a Leica XL ST5010 autostainer, after which slides were subjected to heat-activated epitope retrieval. […] Slides were further blocked in serum for 1 hour, and primary antibodies were added for overnight incubation at 4° C. […] Following incubation, ImmPACT DAB peroxidase (Vector Laboratories, SK-4100) was used to develop the stain and hematoxylin was used as nuclear counterstain. Stained slides were imaged at 40× magnification. Quantitative analyses of IHC images were performed using ImageJ.

[3] = test system: 796 human tumor cell lines; test: PRISM multiplex cell line screening; assay type: cell-based; conditions: 5 days; relative to the other cell lines of the screen
Experimental: The PRISM cell set consisted of 796 cell lines representing more than 45 lineages, which largely overlapped with the Cancer Cell Line Encyclopedia (CCLE) (portals.broadinstitute.org/ccle). Cell lines were grown in RPMI without phenol red, supplemented with 10% or 20% FBS for adherent and suspended lines, respectively. Parental cell lines were stably infected with a unique 24-nucleotide DNA barcode via lentiviral transduction and blasticidin selection. After selection, barcoded cell lines were expanded and subjected to quality control (mycoplasma contamination test, a SNP test for confirming cell line identity, and barcode ID confirmation). Approved cell lines were then pooled (20-25 cell lines per pool) based on doubling time similarity and frozen in assay-ready vials.
RMC-7977 was added to 384-well plates at 8-point concentration with 3-fold dilutions in triplicate. These assay-ready plates were then seeded with the thawed cell line pools. […]
Each cell line's unique barcode is located in the 3′UTR of the blasticidin resistance gene and therefore is expressed as mRNA. […] Finally, Luminex beads that recognize the specific barcode sequences in the cell set were hybridized to the PCR products and detected using a Luminex scanner which reports signal as a median fluorescent intensity (MFI). […]

CCn1c(-c2cc(N3CCN(C4CC4)CC3)cnc2[C@H](C)OC)c2c3cc(ccc31)-c1csc(n1)C[C@H](NC(=O)[C@H]1[C@@H]3COC[C@@H]31)C(=O)N1CCC[C@H](N1)C(=O)OCC(C)(C)C2 [RMC-7977]
half-life [1]: 3.5 h
evaluable EP KPC tumors with full inhibition of pERK expression ([2]; 6 of 7 tumors, 4 hours post final dose): 86%
proliferation (Cyclin A2) in EP tumors ([2]; EP tumors, 24 hours post-dosing): no longer deeply suppressed
apoptosis in KPC tumors ([2]; SD, 1 Wk and EP samples, 4 hours after treatment): wave of apoptosis
reduced proliferation (Cyclin A2) in KPC tumors ([2]; after a week of treatment): pronounced and significant
proliferation (Cyclin A2) in KPC tumors ([2]; single dose): trend towards reduced proliferation
time to restoration of Ras/Mapk signaling ([2]; single dose): ≤ 24 h
Ras/Mapk signaling (pERK IHC) in KPC tumors ([2]; single dose, 4 hours after treatment): near-complete inhibition
pS6 (S235/S236 and S240/S244) in EP tumors ([2]; the same 6 EP tumors): continued inhibition
sensitivity of human PDAC cell lines in PRISM screen (AUC) [3]: among the most sensitive
